Data taken from ChEMBL document CHEMBL1201862, “PubChem BioAssay data set” (2004).
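96-well plates; 48 h exposure; 5 concentrations. Endpoints by linear interpolation between flanking doses. Not reached: highest tested concentration assigned. The concentration for 50% growth inhibition is given as GI50.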 Activity calls are given as the source filed them. Cut-off read from the data, not from the text of the source: active = GI50 up to about 1.1 µM and inactive = higher.

Experiments:
Assay in all cases: DTP human tumour cell line panel, 48 h
A498 = tested on: A498
A549 = tested on: A549
ACHN = tested on: ACHN
EKVX = tested on: EKVX
HT-29 = tested on: HT-29
K562 = tested on: K562
LOX IMVI = tested on: LOX IMVI
Malme-3M = tested on: Malme-3M
OVCAR-3 = tested on: OVCAR-3
OVCAR-4 = tested on: OVCAR-4
SF-295 = tested on: SF-295
SF-539 = tested on: SF-539
SK-MEL-5 = tested on: SK-MEL-5
SN12C = tested on: SN12C
UACC-257 = tested on: UACC-257

Measured: GI50

Cc1cccc(NC(=O)CSc2nnc(Cc3ccccc3)o2)c1
inactive: A498 > 100 µM | A549 > 100 µM | ACHN > 100 µM | EKVX > 100 µM | HT-29 > 100 µM | K562 > 100 µM | LOX IMVI > 100 µM | Malme-3M > 100 µM | OVCAR-3 > 100 µM | OVCAR-4 > 100 µM | SF-295 > 100 µM | SF-539 > 100 µM | SK-MEL-5 > 100 µM | SN12C > 100 µM | UACC-257 > 100 µM

Cc1occ2c1C(=O)CC1C2[C@@H](O)CC2C(C)(C)CCC[C@]12C (stereo partly specified)
inactive: A498 > 100 µM | A549 > 100 µM | ACHN > 100 µM | EKVX > 100 µM | HT-29 > 100 µM | K562 > 100 µM | Malme-3M > 100 µM | OVCAR-4 98.9 µM | SF-295 > 100 µM | SF-539 > 100 µM | SK-MEL-5 > 100 µM | SN12C > 100 µM | UACC-257 > 100 µM

O=C(CC1(O)C(=O)Nc2ccccc21)c1ccccc1Cl (stereo unspecified)
inactive: A498 > 100 µM | A549 > 100 µM | ACHN > 100 µM | EKVX > 100 µM | HT-29 > 100 µM | K562 > 100 µM | LOX IMVI > 100 µM | Malme-3M > 100 µM | OVCAR-3 > 100 µM | OVCAR-4 > 100 µM | SF-295 > 100 µM | SF-539 > 100 µM | SK-MEL-5 > 100 µM | SN12C > 100 µM | UACC-257 > 100 µM

Cc1ccc(C2=Nc3ccccc3[S+]([O-])C(c3ccc4c(c3)OCO4)C2)cc1 (stereo unspecified)
inactive: A498 18.2 µM | A549 28.6 µM | ACHN 20.3 µM | EKVX 52 µM | HT-29 17.7 µM | K562 27.7 µM | LOX IMVI 15.9 µM | Malme-3M 33.8 µM | OVCAR-3 27.7 µM | OVCAR-4 29.3 µM | SF-295 40.1 µM | SF-539 21.2 µM | SK-MEL-5 15 µM | SN12C 17.4 µM | UACC-257 29.7 µM

O=C(CSc1nnc(Cc2ccccc2)o1)Nc1ccc(Cl)cc1Cl
inactive: A498 > 100 µM | A549 > 100 µM | ACHN > 100 µM | HT-29 > 100 µM | K562 > 100 µM | LOX IMVI > 100 µM | Malme-3M > 100 µM | OVCAR-3 > 100 µM | OVCAR-4 > 100 µM | SF-295 > 100 µM | SF-539 > 100 µM | SK-MEL-5 > 100 µM | SN12C > 100 µM | UACC-257 > 100 µM

Nc1nncc2c1c(Br)cn2C1OC(CO)C(O)C1O (stereo unspecified)
inactive: A498 > 67.6 µM | A549 31.7 µM | ACHN 15.1 µM | EKVX 25.6 µM | HT-29 8.39 µM | K562 5.73 µM | LOX IMVI 5.74 µM | Malme-3M > 79.1 µM | OVCAR-3 6.62 µM | OVCAR-4 > 52.7 µM | SF-295 39.6 µM | SF-539 30.5 µM | SK-MEL-5 > 100 µM | SN12C 5.3 µM | UACC-257 > 100 µM

CN(C)c1n/c(=N/c2ccc3ccccc3c2)ss1
inactive: A498 30.6 µM | A549 12.2 µM | ACHN 20.6 µM | K562 15.1 µM | Malme-3M 24.4 µM | OVCAR-3 12.2 µM | OVCAR-4 17.5 µM | SF-539 78.9 µM | SK-MEL-5 11.1 µM | SN12C 32.9 µM | UACC-257 16.5 µM

COc1cc2cccc(/N=C\c3ccccc3Cl)c2cc1OC
inactive: A549 > 100 µM | ACHN > 100 µM | EKVX > 100 µM | HT-29 79.6 µM | K562 4.8 µM | LOX IMVI 70.3 µM | Malme-3M > 100 µM | OVCAR-3 > 100 µM | OVCAR-4 > 100 µM | SF-295 69 µM | SF-539 > 100 µM | SK-MEL-5 > 100 µM | SN12C > 100 µM | UACC-257 > 100 µM

O=C(Cc1ccccc1)N/N=C(/c1nc2ccc([N+](=O)[O-])cc2nc1O)C(O)c1ccc(C(O)/C(=N/NC(=O)Cc2ccccc2)c2nc3ccc([N+](=O)[O-])cc3nc2O)cc1 (stereo unspecified)
inactive: A498 > 100 µM | A549 50.9 µM | ACHN 35.2 µM | EKVX > 100 µM | HT-29 53.8 µM | K562 12.4 µM | LOX IMVI 12.1 µM | Malme-3M > 100 µM | OVCAR-3 20.7 µM | OVCAR-4 > 100 µM | SF-295 44.9 µM | SF-539 56.8 µM | SN12C > 100 µM | UACC-257 62.4 µM

Cc1ccc([N+](=O)[O-])cc1NC(=O)/C(CC(=O)c1sc(C(N)=S)nc1C)=N\N
inactive: A498 > 100 µM | A549 46.2 µM | ACHN 96.2 µM | EKVX 65.3 µM | HT-29 72.3 µM | K562 41.4 µM | LOX IMVI > 100 µM | Malme-3M > 100 µM | OVCAR-3 26.9 µM | OVCAR-4 31.6 µM | SF-295 75.7 µM | SF-539 > 100 µM | SK-MEL-5 90.6 µM | UACC-257 > 100 µM

CCN(CC)c1cccc2c1C1(O)CCC3(CC21)OCCCCO3 (stereo unspecified)
inactive: A498 56.2 µM | A549 49 µM | ACHN 91.8 µM | HT-29 33.3 µM | K562 > 100 µM | LOX IMVI 50.8 µM | Malme-3M > 100 µM | OVCAR-3 84.9 µM | OVCAR-4 > 100 µM | SF-295 28.8 µM | SF-539 35.3 µM | SK-MEL-5 55.6 µM | SN12C 74.1 µM | UACC-257 > 100 µM

CCOC(=O)c1[nH]c2cc(OC)c(OC)cc2c1CN(C)C
inactive: A498 > 100 µM | A549 > 100 µM | ACHN > 100 µM | EKVX > 100 µM | HT-29 > 100 µM | K562 > 100 µM | LOX IMVI > 100 µM | Malme-3M > 100 µM | OVCAR-4 > 100 µM | SF-295 > 100 µM | SF-539 > 100 µM | SK-MEL-5 > 100 µM | SN12C > 100 µM | UACC-257 > 100 µM

Cc1c(-c2ccccc2)c(=O)oc2ccc(Cl)cc12
inactive: A498 > 100 µM | A549 > 100 µM | EKVX 64.7 µM | HT-29 > 100 µM | K562 > 100 µM | LOX IMVI > 100 µM | Malme-3M 99.3 µM | OVCAR-3 > 100 µM | OVCAR-4 53.3 µM | SF-295 > 100 µM | SF-539 38.2 µM | SK-MEL-5 40.3 µM | SN12C > 100 µM | UACC-257 8.55 µM

N#CCc1ccc(C(C#N)/C(CCCC(=O)Nc2cccc([N+](=O)[O-])c2)=N\NC(=O)NN)cc1 (stereo unspecified)
inactive: A498 > 100 µM | A549 > 100 µM | ACHN > 100 µM | EKVX > 100 µM | HT-29 > 100 µM | K562 > 100 µM | Malme-3M > 100 µM | OVCAR-3 > 100 µM | OVCAR-4 > 100 µM | SF-295 > 100 µM | SF-539 > 100 µM | SK-MEL-5 > 100 µM | SN12C > 100 µM | UACC-257 > 100 µM
